According to ChEMBL document CHEMBL5036327, “Systematic Optimization of Potent and Orally Bioavailable Purine Scaffold as a Dual Inhibitor of Toll-Like Receptors 7 and 9” (J Med Chem, 2021):
In brackets after ≈: the same amount, converted by molar mass.

How the values were obtained:
[1] = Apparent permeability across basolateral to apical side in human Caco2 cells at 10 uM measured after 10 mins by LC-MS/MS analysis; settings: Caco-2
[2] = Stability in mouse plasma measured after 2 hrs by LC-MS/MS analysis
Toll-like receptor 7 = molecular target: T1, Toll-like receptor 7 (Homo sapiens, UniProt Q9NYK1); assay: Antagonist activity at human TLR7 expressed in HEK-blue-HTLR7 cells assessed as inhibition of CL264-induced NFkappaB activation measured after overnight incubation by SEAP-based spectrophotometry assay
T1 sequence (Q9NYK1 whole entry): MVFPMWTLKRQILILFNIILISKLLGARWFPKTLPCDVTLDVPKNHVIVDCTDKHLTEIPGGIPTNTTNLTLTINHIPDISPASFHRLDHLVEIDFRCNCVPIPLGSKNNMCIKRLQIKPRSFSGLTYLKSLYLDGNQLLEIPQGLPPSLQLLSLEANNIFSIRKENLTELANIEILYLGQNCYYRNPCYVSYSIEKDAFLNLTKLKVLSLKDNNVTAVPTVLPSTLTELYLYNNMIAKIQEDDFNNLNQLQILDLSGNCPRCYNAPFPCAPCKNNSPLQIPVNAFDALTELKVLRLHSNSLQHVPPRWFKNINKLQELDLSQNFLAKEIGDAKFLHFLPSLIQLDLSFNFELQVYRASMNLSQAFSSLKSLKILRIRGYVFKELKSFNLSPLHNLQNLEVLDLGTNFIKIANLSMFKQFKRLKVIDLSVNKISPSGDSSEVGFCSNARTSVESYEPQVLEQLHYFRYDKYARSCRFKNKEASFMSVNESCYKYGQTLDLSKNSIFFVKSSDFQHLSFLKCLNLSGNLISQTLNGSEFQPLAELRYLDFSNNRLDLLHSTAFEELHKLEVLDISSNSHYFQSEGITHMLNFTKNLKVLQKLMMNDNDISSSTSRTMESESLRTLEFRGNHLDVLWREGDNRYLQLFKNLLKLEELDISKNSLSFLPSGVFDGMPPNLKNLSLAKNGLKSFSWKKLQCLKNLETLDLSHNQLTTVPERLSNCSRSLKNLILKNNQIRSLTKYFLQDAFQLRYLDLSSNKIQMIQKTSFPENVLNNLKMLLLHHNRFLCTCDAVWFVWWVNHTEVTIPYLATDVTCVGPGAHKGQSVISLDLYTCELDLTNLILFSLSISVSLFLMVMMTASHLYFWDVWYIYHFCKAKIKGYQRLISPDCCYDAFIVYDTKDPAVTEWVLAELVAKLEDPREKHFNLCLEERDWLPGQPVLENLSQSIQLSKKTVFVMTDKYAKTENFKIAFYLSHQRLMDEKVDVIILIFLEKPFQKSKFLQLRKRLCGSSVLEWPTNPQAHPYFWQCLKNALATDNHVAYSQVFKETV

[3] = Efflux ratio of apparent permeability across apical to basolateral over basolateral to apical side in human Caco2 cells measured after 10 mins by LC-MS/MS analysis; settings: Caco-2
[4] = Apparent permeability across apical to basolateral side in human Caco2 cells at 10 uM measured after 10 mins by LC-MS/MS analysis; settings: Caco-2
[5] = Metabolic stability in human liver microsomes assessed as intrinsic clearance incubated for 60 mins by LC-MS/MS analysis
[6] = Metabolic stability in human liver microsomes assessed as compound remaining incubated for 60 mins by LC-MS/MS analysis
Toll-like receptor 9 = molecular target: T2, Toll-like receptor 9 (Homo sapiens, UniProt Q9NR96); assay: Antagonist activity at human TLR9 expressed in […] cells assessed as inhibition of CpGB-induced NFkappaB activation measured after overnight incubation by SEAP-based spectrophotometry assay; assay type: cell-based, HEK293
T2 sequence (Q9NR96 whole entry): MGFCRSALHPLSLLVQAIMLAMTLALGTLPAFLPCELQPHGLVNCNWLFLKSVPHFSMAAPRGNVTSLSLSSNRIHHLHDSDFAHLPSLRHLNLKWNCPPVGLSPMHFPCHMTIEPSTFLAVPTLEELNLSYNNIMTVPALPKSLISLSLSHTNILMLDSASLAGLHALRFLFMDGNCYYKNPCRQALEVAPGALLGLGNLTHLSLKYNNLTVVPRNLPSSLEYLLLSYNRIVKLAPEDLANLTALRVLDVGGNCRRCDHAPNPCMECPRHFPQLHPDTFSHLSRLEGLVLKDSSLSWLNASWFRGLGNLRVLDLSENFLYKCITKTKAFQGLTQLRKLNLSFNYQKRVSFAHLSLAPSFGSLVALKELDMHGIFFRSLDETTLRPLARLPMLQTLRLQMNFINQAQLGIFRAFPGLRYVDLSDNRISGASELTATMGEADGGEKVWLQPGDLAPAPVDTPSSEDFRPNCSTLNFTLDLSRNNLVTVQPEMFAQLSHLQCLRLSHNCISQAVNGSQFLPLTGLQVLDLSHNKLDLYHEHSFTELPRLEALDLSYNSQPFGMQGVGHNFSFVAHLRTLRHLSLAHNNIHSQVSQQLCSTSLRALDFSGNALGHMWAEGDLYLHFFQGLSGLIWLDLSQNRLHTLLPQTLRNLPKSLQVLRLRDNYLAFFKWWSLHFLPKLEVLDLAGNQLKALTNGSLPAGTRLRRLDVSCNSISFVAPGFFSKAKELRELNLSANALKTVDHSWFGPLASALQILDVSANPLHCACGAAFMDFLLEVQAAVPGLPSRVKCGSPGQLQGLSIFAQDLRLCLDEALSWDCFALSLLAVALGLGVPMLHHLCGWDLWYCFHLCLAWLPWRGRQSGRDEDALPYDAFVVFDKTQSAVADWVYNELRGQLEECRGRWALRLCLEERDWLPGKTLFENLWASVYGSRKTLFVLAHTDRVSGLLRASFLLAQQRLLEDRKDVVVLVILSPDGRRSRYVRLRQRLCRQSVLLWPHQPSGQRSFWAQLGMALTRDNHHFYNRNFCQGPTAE

Toll-like receptor 8 = molecular target: T3, Toll-like receptor 8 (Homo sapiens, UniProt Q9NR97); assay: Antagonist activity at human TLR8 expressed in […] cells assessed as inhibition of CL075-induced NFkappaB activation measured after overnight incubation by SEAP-based spectrophotometry assay; assay type: cell-based, HEK293
T3 sequence (Q9NR97 whole entry): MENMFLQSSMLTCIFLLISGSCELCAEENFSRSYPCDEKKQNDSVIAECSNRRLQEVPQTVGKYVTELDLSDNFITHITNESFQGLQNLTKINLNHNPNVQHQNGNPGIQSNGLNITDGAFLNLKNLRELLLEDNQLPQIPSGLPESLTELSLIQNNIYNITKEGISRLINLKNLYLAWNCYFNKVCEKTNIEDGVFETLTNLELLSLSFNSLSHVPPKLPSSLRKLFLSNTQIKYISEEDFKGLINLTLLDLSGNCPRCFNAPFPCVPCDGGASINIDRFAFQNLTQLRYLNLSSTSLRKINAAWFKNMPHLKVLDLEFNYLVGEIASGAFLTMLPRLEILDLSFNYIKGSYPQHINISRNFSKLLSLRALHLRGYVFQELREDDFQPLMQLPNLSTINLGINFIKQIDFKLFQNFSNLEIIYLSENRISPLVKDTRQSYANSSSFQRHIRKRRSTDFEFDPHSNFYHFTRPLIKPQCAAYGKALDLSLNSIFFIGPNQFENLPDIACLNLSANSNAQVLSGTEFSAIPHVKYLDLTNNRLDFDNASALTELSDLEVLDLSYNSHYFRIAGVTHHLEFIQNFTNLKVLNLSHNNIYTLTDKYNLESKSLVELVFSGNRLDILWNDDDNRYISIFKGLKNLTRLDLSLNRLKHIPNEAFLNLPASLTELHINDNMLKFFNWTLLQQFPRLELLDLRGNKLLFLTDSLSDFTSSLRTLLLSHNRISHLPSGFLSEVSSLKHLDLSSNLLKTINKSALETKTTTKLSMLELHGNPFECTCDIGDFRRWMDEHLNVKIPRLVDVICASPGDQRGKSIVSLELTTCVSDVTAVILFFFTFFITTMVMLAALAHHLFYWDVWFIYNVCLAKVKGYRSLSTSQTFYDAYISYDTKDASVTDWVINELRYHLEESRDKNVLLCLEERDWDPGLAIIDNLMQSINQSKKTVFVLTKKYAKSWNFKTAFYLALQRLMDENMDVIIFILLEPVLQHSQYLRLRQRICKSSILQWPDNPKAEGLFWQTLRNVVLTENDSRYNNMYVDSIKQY

[7] = Metabolic stability in human liver microsomes assessed as half life incubated for 60 mins by LC-MS/MS analysis
[8] = metabolic stability in human liver microsomes assessed as hepatic extraction ratio incubated for 60 mins by LC-MS/MS analysis
[9] = Metabolic stability in mouse liver microsomes assessed as hepatic extraction ratio incubated for 60 mins by LC-MS/MS analysis
physchem = settings: buffer, pH 7.4
Description: Aqueous solubility of compound at pH 7.4 measured after 18 hrs by UV-spectrometry

[10] = Stability in human plasma measured after 2 hrs by LC-MS/MS analysis
[11] = Metabolic stability in mouse liver microsomes assessed as intrinsic clearance incubated for 60 mins by LC-MS/MS analysis

CCN1CCN(CCCn2cnc3c(N4CCN(CC)CC4)ncnc32)CC1
Papp B→A at 10 min, 10 µM [1]: 9.28 ×10⁻⁶ cm/s
remaining at 2 h [2]: 99%
IC50 (Toll-like receptor 7): 4.78 µM
efflux ratio at 10 min [3]: 2.6
Papp A→B at 10 min, 10 µM [4]: 3.57 ×10⁻⁶ cm/s
microsomal CLint at 1 h [5]: 7.81 µL/min/mg
remaining at 1 h [6]: 75.8%
IC50 (Toll-like receptor 9): 1.19 µM

CCN1CCN(CCCn2cnc3c(N4CCN(C(=O)c5ccccc5)CC4)nc(NCc4ccc(F)cc4)nc32)CC1
IC50 (Toll-like receptor 7): > 30 µM
IC50 (Toll-like receptor 9): > 30 µM

CCN1CCN(c2nc(N)nc3c2ncn3CCCN2CCCC2)CC1
IC50 (Toll-like receptor 7): 4.94 µM
IC50 (Toll-like receptor 9): 0.19 µM

CCN1CCN(CCCn2cnc3c(N4CCN(C5CCCC5)CC4)nc(N)nc32)CC1
IC50 (Toll-like receptor 7): 13.2 µM
IC50 (Toll-like receptor 9): 0.28 µM

CCN1CCN(CCCn2cnc3c(N4CCN(C(=O)c5ccccc5)CC4)nc(NCc4ccc(N(CC)CC)cc4)nc32)CC1
IC50 (Toll-like receptor 7): 8.4 µM
IC50 (Toll-like receptor 9): 3.4 µM

CCN1CCN(CCCn2cnc3c(N4CCN(CC)CC4)nc(N4CCCC4)nc32)CC1
IC50 (Toll-like receptor 7): 8.49 µM
IC50 (Toll-like receptor 9): 0.5 µM

CCN1CCN(CCCn2cnc3c(N4CCN(C5CCCC5)CC4)nc(NCc4ccc(N(CC)CC)cc4)nc32)CC1
IC50 (Toll-like receptor 7): 8.13 µM
IC50 (Toll-like receptor 9): 0.15 µM

CCN1CCN(c2nc(NCc3ccc(F)cc3)nc3c2ncn3CCCN2CCCC2)CC1
IC50 (Toll-like receptor 8): > 30 µM
IC50 (Toll-like receptor 9): 0.04 µM

CCN1CCN(CCCn2cnc3c(N4CCN(CC)CC4)nc(N)nc32)CC1
IC50 (Toll-like receptor 7): 16.2 µM
IC50 (Toll-like receptor 9): 0.26 µM

CCN1CCN(CCCn2cnc3c(N4CCN(C5CCCC5)CC4)nc(NCc4ccc(F)cc4)nc32)CC1
IC50 (Toll-like receptor 7): > 30 µM
IC50 (Toll-like receptor 9): 0.25 µM

CCN1CCN(CCCn2cnc3c(N4CCN(C(=O)c5ccccc5)CC4)nc(N4CCCC4)nc32)CC1
IC50 (Toll-like receptor 7): > 30 µM
IC50 (Toll-like receptor 9): > 30 µM

CCN1CCN(CCCn2cnc3c(N4CCN(C(=O)C5CCCC5)CC4)nc(NCc4ccc(F)cc4)nc32)CC1
IC50 (Toll-like receptor 7): > 30 µM
IC50 (Toll-like receptor 9): > 30 µM

CCN1CCN(CCCn2cnc3c(N4CCN(C(=O)c5ccccc5)CC4)nc(N)nc32)CC1
IC50 (Toll-like receptor 7): > 30 µM
IC50 (Toll-like receptor 9): > 30 µM

CCN1CCN(CCCn2cnc3c(N4CCN(C5CCCC5)CC4)nc(NC(=O)c4ccc(CN(C)C)cc4)nc32)CC1
IC50 (Toll-like receptor 8): > 30 µM
IC50 (Toll-like receptor 9): 0.06 µM

COc1ccc(CNc2nc(N3CCN(C4CCCC4)CC3)c3ncn(CCCN4CCCC4)c3n2)cc1
IC50 (Toll-like receptor 7): 11.6 µM

Nc1nc(N2CCN(C3CCCC3)CC2)c2ncn(CCCN3CCCC3)c2n1
IC50 (Toll-like receptor 7): 4.88 µM
IC50 (Toll-like receptor 9): 0.12 µM

CCN1CCN(CCCn2cnc3c(N4CCN(CC)CC4)nc(NCc4ccccc4)nc32)CC1
IC50 (Toll-like receptor 7): 7.59 µM

CCN1CCN(c2nc(NCc3ccc(OC)cc3)nc3c2ncn3CCCN2CCCC2)CC1
IC50 (Toll-like receptor 8): > 30 µM

CCN1CCN(CCCn2cnc3c(N4CCN(CC)CC4)nc(NCc4ccc(F)cc4)nc32)CC1
IC50 (Toll-like receptor 7): 10.1 µM

CCN1CCN(CCCn2cnc3c(N4CCN(CC)CC4)nc(NCc4ccc(OC)cc4)nc32)CC1
IC50 (Toll-like receptor 7): 5.22 µM
IC50 (Toll-like receptor 9): 0.2 µM

CCN1CCN(CCCn2cnc3c(N4CCN(C(=O)C5CCCC5)CC4)nc(N)nc32)CC1
IC50 (Toll-like receptor 7): > 30 µM
IC50 (Toll-like receptor 9): > 30 µM

CCN1CCN(CCCn2cnc3c(N4CCN(CC)CC4)nc(NC(=O)c4ccccc4)nc32)CC1
IC50 (Toll-like receptor 7): 7.74 µM

CCN1CCN(c2nc(NCc3ccc(CN(C)C)cc3)nc3c2ncn3CCCN2CCCC2)CC1
Papp B→A at 10 min, 10 µM [1]: 61.2 ×10⁻⁶ cm/s
half-life at 1 h [7]: 1.87 h
remaining at 2 h [2]: 22%
hepatic extraction ratio at 1 h [8]: 0.241
hepatic extraction ratio at 1 h [9]: 0.114
IC50 (Toll-like receptor 7): 17.8 µM
efflux ratio at 10 min [3]: 0.7
Papp A→B at 10 min, 10 µM [4]: 92.2 ×10⁻⁶ cm/s
solubility at 18 h (physchem): 136 µg/mL (≈ 269 µM)
microsomal CLint at 1 h [5]: 7.1 µL/min/mg
remaining at 1 h [6]: 50.7%
remaining at 2 h [10]: 58%
IC50 (Toll-like receptor 9): 0.09 µM
microsomal CLint at 1 h [11]: 4.74 µL/min/mg

CCN1CCN(CCCn2cnc3c(N4CCN(C5CCCC5)CC4)nc(NCc4ccc(OC)cc4)nc32)CC1
IC50 (Toll-like receptor 7): > 30 µM

CCN1CCN(CCCn2cnc3c(N4CCN(C(=O)c5ccccc5)CC4)nc(NCc4ccc(OC)cc4)nc32)CC1
IC50 (Toll-like receptor 7): > 30 µM
IC50 (Toll-like receptor 9): > 30 µM

CCN1CCN(CCCn2cnc3c(N4CCN(C(=O)C5CCCC5)CC4)nc(NCc4ccc(OC)cc4)nc32)CC1
IC50 (Toll-like receptor 7): > 30 µM
IC50 (Toll-like receptor 9): > 30 µM
